Values quoted from earlier work in US20080125428A1, “Cancer Treatment Method” (priority 2004, published 2008).

System: tumor cells overexpressing EGFR or erbB2
Conditions: Rusnak et al., 2001b, Xia et al., 2002

CS(=O)(=O)CCNCc1ccc(-c2ccc3ncnc(Nc4ccc(OCc5cccc(F)c5)c(Cl)c4)c3c2)o1 [GW572016, N-{3-chloro-4-[(3-fluorobenzyl)oxy]phenyl}-6-[5-({[2-(methanesulphonyl)ethyl]amino}methyl)-2-furyl]-4-quinazolinamine]
kinase inhibition in human xenograft studies: dose-dependent kinase inhibition
selectivity for tumor cells overexpressing EGFR or erbB2 (human xenograft studies): selectively inhibits tumor cells overexpressing EGFR or erbB2
